From patent US6632816B1, “Aromatic derivatives as HIV aspartyl protease inhibitors” (Pharmacor Inc., priority 2002, dated 2003)

Molecular target: HIV protease (Human immunodeficiency virus type 1 group M subtype B, UniProt P04585)
Assay: biochemical

`COC(=O)N[C@@H](Cc1ccccc1-c1cccc(F)c1)C(=O)NCCCC[C@@H](CO)N(CC(C)C)S(=O)(=O)c1ccc(N)c(Cl)c1` [Example 57, (1S,5S)-[1-{5-[(4-Amino-3-chloro-benzenesulfonyl)-isobutyl-amino]-6-hydroxy-hexylcarbamoyl}-2-(3′-fluoro-biphenyl-2-yl)-ethyl]-carbamic Acid Methyl Ester] gave a Ki of 1.7 nM.

Compound `CCOC(=O)N[C@@H](Cc1cccc2ccccc12)C(=O)NCCC[C@@H](CO)N(CC(C)C)S(=O)(=O)c1ccc(N)cc1` [Example 18, (1S,4S)-(1-{4-[(4-Amino-benzenesulfonyl)-isobutyl-amino]-5-hydroxy-pentylcarbamoyl}-2-naphthalen-1-yl-ethyl)-carbamic Acid Ethyl Ester] has a Ki of 3.9 nM.

Compound `CCCN[C@@H](Cc1ccc2ccccc2c1)C(=O)NCCCC[C@@H](CO)N(CC(C)C)S(=O)(=O)c1ccc(N)cc1` [Example 64, (2S,5S)-N-{5-[(4-Amino-benzenesulfonyl)-isobutyl-amino]-6-hydroxy-hexyl}-3-naphthalen-2-yl-2-propylamino-propionamide] has a Ki of 4.6 nM.

Compound `CC(C)CN([C@H](CO)CCCCNC(=O)[C@H](Cc1ccc2ccccc2c1)NC(=O)C1CC1)S(=O)(=O)c1ccc(F)c(N)c1` [Example 87, (1S,5S)-Cyclopropanecarboxylic Acid (1-{5-[(3-Amino-4-fluoro-benzenesulfonyl)-isobutyl-amino]-6-hydroxy-hexylcarbamoyl}-2-naphthalen-2-yl-ethyl)-amide] has a Ki of less than 3.8 nM.

Compound `CC(C)CN([C@H](CO)CCCNC(=O)[C@@H](NC(=O)OC(C)(C)C)C(c1ccccc1)c1ccccc1)S(=O)(=O)c1ccc(N)cc1` [Example 16, (1S,4S)-(1-{4-[(4-Amino-benzenesulfonyl)-isobutyl-amino]-5-hydroxy-pentylcarbamoyl}-2,2-diphenyl-ethyl)-carbamic Acid tert-Butyl Ester] has a Ki of 9.3 nM.

`CCCCN[C@@H](Cc1cccc2ccccc12)C(=O)NCCC[C@@H](CO)N(CC(C)C)S(=O)(=O)c1ccc(N)cc1` [Example 20, (2S,4S)-N-{4-[(4-Amino-benzenesulfonyl)-isobutyl-amino]-5-hydroxy-pentyl}-2-butylamino-3-naphthalen-1-yl-propionamide] was tested, and the Ki was 4.4 nM.

`CC(C)CN([C@H](CO)CCCCNC(=O)[C@H](Cc1ccc2ccccc2c1)NCc1ccccn1)S(=O)(=O)c1ccc(N)cc1` [Example 70, (2S,5S)-N-{5-[(4-Amino-benzenesulfonyl)-isobutyl-amino]-6-hydroxy-hexyl}-3-naphthalen-2-yl-2-[(pyridin-2-ylmethyl)-amino]-propionamide] was tested, and the Ki was 4.9 nM.

`CC(C)CN([C@H](CO)CCCCNC(=O)[C@H](Cc1ccc2ccccc2c1)NC(=O)OC(C)(C)C)S(=O)(=O)c1ccc(N)c(F)c1` [Example 91, (1S,5S)-(1-{5-[(4-Amino-3-fluoro-benzenesulfonyl)-isobutyl-amino]-6-hydroxy-hexylcarbamoyl}-2-naphthalen-2-yl-ethyl)-carbamic Acid tert-Butyl Ester] was tested, and the Ki was less than 3.8 nM.

For `CC(C)CN([C@H](CO)CCCNC(=O)[C@@H](N)Cc1cccc2ccccc12)S(=O)(=O)c1ccc(N)cc1` [Example 8, (2S,4S)-2-Amino-N-{4-[(4-amino-benzenesulfonyl)-isobutyl-amino]-5-hydroxy-pentyl}-3-naphthalen-1-yl-propionamide], the Ki was 1.6 nM.

Compound `COC(=O)CN[C@@H](Cc1cccc2ccccc12)C(=O)NCCC[C@@H](CO)N(CC(C)C)S(=O)(=O)c1ccc(N)cc1` [Example 15, (1S,4S)-(1-{4-[(4-Amino-benzenesulfonyl)-isobutyl-amino]-5-hydroxy-pentylcarbamoyl}-2-naphthalen-1-yl-ethylamino)-acetic Acid Methyl Ester] has a Ki of 4.2 nM.

`Cc1ncccc1C(=O)N[C@H](C(=O)NCCCC[C@@H](CO)N(CC(C)C)S(=O)(=O)c1ccc(N)cc1)C(c1ccccc1)c1ccccc1` [Example 111, (1S,5S)-N-(1-{5-[(4-Amino-benzenesulfonyl)-isobutyl-amino]-6-hydroxy-hexylcarbamoyl}-2,2-diphenyl-ethyl)-2-methyl-nicotinamide] gave a Ki of less than 3.8 nM.

With `CC(C)CN([C@H](CO)CCCCNC(=O)[C@@H](NC(=O)OCc1ccccn1)C(c1ccccc1)c1ccccc1)S(=O)(=O)c1ccc(N)cc1` [Example 95, (1S,5S)-(1-{5-[(4-Amino-benzenesulfonyl)-isobutyl-amino]-6-hydroxy-hexylcarbamoyl}-2,2-diphenyl-ethyl)-carbamic Acid Pyridin-2-ylmethyl Ester] the Ki was less than 3.8 nM.

In the case of `COCC(=O)N[C@@H](Cc1cccc2ccccc12)C(=O)NCCC[C@@H](CO)N(CC(C)C)S(=O)(=O)c1ccc(N)cc1` [Example 19, (2S,4S)-N-{4-[(4-Amino-benzenesulfonyl)-isobutyl-amino]-5-hydroxy-pentyl}-2-(2-methoxy-acetylamino)-3-naphthalen-1-yl-propionamide], the Ki is reported as 2.6 nM.

With `COc1ccc(CC(=O)N[C@@H](Cc2cccc3ccccc23)C(=O)NCCC[C@@H](CO)N(CC(C)C)S(=O)(=O)c2ccc(N)cc2)cc1` [Example 5, (2S,4S)-N-{4-[(4-Amino-benzenesulfonyl)-isobutyl-amino]-5-hydroxy-pentyl}-2-[2-(4-methoxy-phenyl)-acetylamino]-3-naphthalen-1-yl-propionamide] the Ki was 11 nM.

`COC(=O)N[C@@H](Cc1cccc2ccccc12)C(=O)NCCCC[C@@H](CO)N(CC(C)C)S(=O)(=O)c1ccc(N)cc1` [Example 28, (1S,5S)-(1-{5-[(4-Amino-benzenesulfonyl)-isobutyl-amino]-6-hydroxy-hexylcarbamoyl}-2-naphthalen-1-yl-ethyl)-carbamic Acid Methyl Ester] gave a Ki of 1.2 nM.

`CC(C)CN([C@H](CO)CCCCNC(=O)[C@@H](NC(=O)c1ccccc1O)C(c1ccccc1)c1ccccc1)S(=O)(=O)c1ccc(N)cc1` [Example 104, (1S,5S)-N-(1-{5-[(4-Amino-benzenesulfonyl)-isobutyl-amino]-6-hydroxy-hexylcarbamoyl}-2,2-diphenyl-ethyl)-2-hydroxy-benzamide] gave a Ki of less than 3.8 nM.

`CC(C)CN([C@H](CO)CCCNC(=O)[C@H](Cc1cccc2ccccc12)NCC(=O)O)S(=O)(=O)c1ccc(N)cc1` [Example 27, (1S,4S)-(1-{4-[(4-Amino-benzenesulfonyl)-isobutyl-amino]-5-hydroxy-pentylcarbamoyl}-2-naphthalen-1-yl-ethylamino)-acetic Acid] gave a Ki of 2.5 nM.

`CCN[C@@H](Cc1ccc2ccccc2c1)C(=O)NCCCC[C@@H](CO)N(CC(C)C)S(=O)(=O)c1ccc(N)cc1` [Example 65, (2S,5S)-N-{5-[(4-Amino-benzenesulfonyl)-isobutyl-amino]-6-hydroxy-hexyl}-2-ethylamino-3-naphthalen-2-yl-propionamide] showed a Ki of 6.2 nM.

`CC(C)CN([C@H](CO)CCCCNC(=O)[C@H](Cc1ccc2ccccc2c1)NC(=O)c1cccnc1)S(=O)(=O)c1ccc(F)c(N)c1` [Example 83] gave a Ki of less than 3.8 nM.

`CC(C)CN([C@H](CO)CCCCNC(=O)[C@H](Cc1ccc2ccccc2c1)NC(=O)C1CCOC1)S(=O)(=O)c1ccc(F)c(N)c1` (stereo partly drawn) [Example 85, (1S,5S)-Tetrahydro-furan-3-carboxylic Acid (1-{5-[(3-Amino-4-fluoro-benzenesulfonyl)-isobutyl-amino]-6-hydroxy-hexylcarbamoyl}-2-naphthalen-2-yl-ethyl)-amide] gave a Ki of less than 3.8 nM.

With `CC(=O)N[C@@H](Cc1ccc2ccccc2c1)C(=O)NCCCC[C@@H](CO)N(CC(C)C)S(=O)(=O)c1ccc(F)c(N)c1` [Example 89, (2S,5S)-2-Acetylamino-N-{5-[(3-amino-4-fluoro-benzenesulfonyl)-isobutyl-amino]-6-hydroxy-hexyl}-3-naphthalen-2-yl-propionamide] the Ki was less than 3.8 nM.

`CC(C)CN([C@H](CO)CCCNC(=O)[C@@H](N)C(c1ccccc1)c1ccccc1)S(=O)(=O)c1ccc(N)cc1` [Example 24, (2S,4S)-2-Amino-N-{4-[(4-amino-benzenesulfonyl)-isobutyl-amino]-5-hydroxy-pentyl}-3,3-diphenyl-propionamide] showed a Ki of 7.5 nM.

Work on `CC(C)CN([C@H](CO)CCCCNC(=O)[C@@H](NC(=O)c1ccc(O)c([N+](=O)[O-])c1)C(c1ccccc1)c1ccccc1)S(=O)(=O)c1ccc(N)cc1` [Example 103, (1S,5S)-N-(1-{5-[(4-Amino-benzenesulfonyl)-isobutyl-amino]-6-hydroxy-hexylcarbamoyl}-2,2-diphenyl-ethyl)-4-hydroxy-3-nitro-benzamide] yielded a Ki of less than 3.8 nM.

For `CC(C)CN([C@H](CO)CCCCNC(=O)[C@@H](NC(=O)c1cccc(O)c1)C(c1ccccc1)c1ccccc1)S(=O)(=O)c1ccc(N)cc1` [Example 105, (1S,5S)-N-(1-{5-[(4-Amino-benzenesulfonyl)-isobutyl-amino]-6-hydroxy-hexylcarbamoyl}-2,2-diphenyl-ethyl)-3-hydroxy-benzamide], the Ki was less than 3.8 nM.

Work on `CC(C)CN([C@H](CO)CCCCNC(=O)[C@@H](NC(=O)c1ccc(N)nc1)C(c1ccccc1)c1ccccc1)S(=O)(=O)c1ccc(N)cc1` [Example 109, (1S,5S)-6-Amino-N-(1-{5-[(4-amino-benzenesulfonyl)-isobutyl-amino]-6-hydroxy-hexylcarbamoyl}-2,2-diphenyl-ethyl)-nicotinamide] yielded a Ki of less than 3.8 nM.

Work on `CCCCN[C@@H](Cc1ccc2ccccc2c1)C(=O)NCCCC[C@@H](CO)N(CC(C)C)S(=O)(=O)c1ccc(N)cc1` [Example 68, (2S,5S)-N-{5-[(4-Amino-benzenesulfonyl)-isobutyl-amino]-6-hydroxy-hexyl}-2-butylamino-3-naphthalen-2-yl-propionamide] yielded a Ki of 5.8 nM.

With `CC(C)CN([C@H](CO)CCCCNC(=O)[C@@H](NC(=O)c1ccc[nH]1)C(c1ccccc1)c1ccccc1)S(=O)(=O)c1ccc(N)cc1` [Example 98, (1S,5S)-Pyrrole-2-carboxylic Acid (1-{5-[(4-Amino-benzenesulfonyl)-isobutyl-amino]-6-hydroxy-hexylcarbamoyl}-2,2-diphenyl-ethyl)-amide] the Ki was less than 3.8 nM.

In the case of `CC(C)CN([C@H](CO)CCCNC(=O)[C@@H](N)Cc1ccccc1-c1ccccc1)S(=O)(=O)c1ccc(N)cc1` [Example 14, (2S,4S)-2-Amino-N-{4-[(4-amino-benzenesulfonyl)-isobutyl-amino]-5-hydroxy-pentyl}-3-biphenyl-2-yl-propionamide], the Ki is reported as 7.1 nM.
